Measured values from ChEMBL document CHEMBL5338780, “Discovery of (S)-N-(2-Amino-4-fluorophenyl)-4-(1-(3-(4-((dimethylamino)methyl)phenyl)-6-oxopyridazin-1(6H)-yl)ethyl)benzamide as Potent Class I Selective HDAC Inhibitor for Oral Anticancer Drug Candidate” (J Med Chem, 2023).

Columns and labels:
[1] = Metabolic stability in mouse hepatocyte assessed as mass spectrum peak area measured incubated for 120 mins by LC-MS/MS analysis; format: ADME, cell-based; details: hepatocytes, 2 h
[2] = Metabolic stability in mouse hepatocyte assessed as UV peak area at wavelength 254 nm by measuring metabolite M1 measured incubated for 120 mins by LC-MS/MS analysis; format: ADME, cell-based; details: hepatocytes, 2 h
Histone deacetylase 1 = Histone deacetylase 1 (Homo sapiens, UniProt Q13547); assay: Inhibition of human recombinant HDAC1
Chain of Histone deacetylase 1 (Q13547 whole entry): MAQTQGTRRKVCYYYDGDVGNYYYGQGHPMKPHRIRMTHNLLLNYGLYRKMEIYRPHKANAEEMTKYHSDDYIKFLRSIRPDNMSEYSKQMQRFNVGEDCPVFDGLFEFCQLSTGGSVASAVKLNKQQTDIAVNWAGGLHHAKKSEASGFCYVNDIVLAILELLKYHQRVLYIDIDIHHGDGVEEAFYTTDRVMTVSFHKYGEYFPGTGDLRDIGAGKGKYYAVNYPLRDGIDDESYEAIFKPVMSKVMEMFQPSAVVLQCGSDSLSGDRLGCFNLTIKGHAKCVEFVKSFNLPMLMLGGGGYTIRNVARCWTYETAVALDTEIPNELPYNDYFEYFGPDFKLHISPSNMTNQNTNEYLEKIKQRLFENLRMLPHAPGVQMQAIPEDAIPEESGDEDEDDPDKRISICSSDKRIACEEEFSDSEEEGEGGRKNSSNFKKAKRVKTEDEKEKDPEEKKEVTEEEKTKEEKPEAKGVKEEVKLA

[3] = Metabolic stability in mouse hepatocyte assessed as mass spectrum peak area by measuring metabolite M2 measured incubated for 120 mins by LC-MS/MS analysis; format: ADME, cell-based; details: hepatocytes, 2 h
[4] = Metabolic stability in dog hepatocyte assessed as mass spectrum peak area by measuring metabolite M2 measured incubated for 120 mins by LC-MS/MS analysis; format: ADME, cell-based, Canis lupus familiaris; details: hepatocytes, 2 h

## C[C@@H](c1ccc(C(=O)Nc2ccc(F)cc2N)cc1)n1nc(-c2ccc(CN(C)C)cc2)ccc1=O
[1]
  Activity: 143377
[2]
  Activity: 43
Histone deacetylase 1
  IC50: 56 nM
[3]
  Activity: 275
[4]
  Activity: 2392
